Measurements: PubChem BioAssay AID2060895 (Molecular Pharmacology Branch, DTP, NCI, 2025)
pIC50: −log10 of the molar value. “And” between values parts separate entries of the source, which are not always exact repeats. Equal values may be shown once. Values belong to the compound of their own block, whether it stands above or below them.

System: PDC 899932-113-R3-J6 complex spheroid viability
Assay: Anticancer human tumor 899932-113-R3-J6-PDC patient-derived melanoma cell line growth inhibition [RAS]
Details: for pIC50: curve of first compound; for viability, T/C: stronger effect = lower value
Method in brief: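 Multi-cell-type spheroids: tumor cells plus HUVEC endothelial cells and mesenchymal stem cells. RAS-pathway inhibitors were combined with targeted agents, each dosed in half-log steps down from clinical Cmax, or from 10 microM when Cmax was unknown.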

[1] = second compound 0.000949 µM, first compound 0.0316 µM
[2] = second compound 0.000949 µM, first compound 0.1 µM
[3] = second compound 0.000949 µM, first compound 0.316 µM
[4] = second compound 0.000949 µM, first compound 1 µM
[5] = second compound 0.003 µM, first compound 0.0316 µM
[6] = second compound 0.003 µM, first compound 0.1 µM
[7] = second compound 0.003 µM, first compound 0.316 µM
[8] = second compound 0.003 µM, first compound 1 µM
[9] = second compound 0.00949 µM, first compound 0.0316 µM
[10] = second compound 0.00949 µM, first compound 0.1 µM
[11] = second compound 0.00949 µM, first compound 0.316 µM
[12] = second compound 0.00949 µM, first compound 1 µM
[13] = second compound 0.03 µM, first compound 0.0316 µM
[14] = second compound 0.03 µM, first compound 0.1 µM
[15] = second compound 0.03 µM, first compound 0.316 µM
[16] = second compound 0.03 µM, first compound 1 µM
[17] = second compound 0.0949 µM, first compound 0.0316 µM
[18] = second compound 0.0949 µM, first compound 0.1 µM
[19] = second compound 0.0949 µM, first compound 0.316 µM
[20] = second compound 0.0949 µM, first compound 1 µM
[21] = second compound 0.3 µM, first compound 0.0316 µM
[22] = second compound 0.3 µM, first compound 0.1 µM
[23] = second compound 0.3 µM, first compound 0.316 µM
[24] = second compound 0.3 µM, first compound 1 µM
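For viability, T/C in this document: spheroids exposed to agents for seven days before readout; 100% = DMSO vehicle control wells.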

pIC50 (second compound 0.0316 µM): 7.75 | pIC50 (second compound 0.1 µM): 7.71 | pIC50 (second compound 0.316 µM): 7.77 | pIC50 (second compound 1 µM): 7.72 | pIC50 (second compound 3.16 µM): 7.78 | pIC50 (second compound 10 µM): 7.75
SMILES: Nc1ccn(C2OC(CO)C(O)C2(F)F)c(=O)n1 (stereo not drawn) + C#Cc1c(F)ccc2cc(O)cc(-c3ncc4c(N5CC6CCC(C5)N6)nc(OCC56CCCN5CC(F)C6)nc4c3F)c12
viability, T/C (second compound 0.0316 µM, first compound 0.00316 µM): 102% | viability, T/C (second compound 0.0316 µM, first compound 0.01 µM): 65.1% | viability, T/C (second compound 0.0316 µM, first compound 0.0316 µM): 35.3% | viability, T/C (second compound 0.0316 µM, first compound 0.1 µM): 21.2% | viability, T/C (second compound 0.0316 µM, first compound 0.316 µM): 18.6% | viability, T/C (second compound 0.0316 µM, first compound 1 µM): 22.1% | viability, T/C (second compound 0.1 µM, first compound 0.00316 µM): 95% | viability, T/C (second compound 0.1 µM, first compound 0.01 µM): 71.7% | viability, T/C (second compound 0.1 µM, first compound 0.0316 µM): 34.3% | viability, T/C (second compound 0.1 µM, first compound 0.1 µM): 18.9% | viability, T/C (second compound 0.1 µM, first compound 0.316 µM): 20.5% | viability, T/C (second compound 0.1 µM, first compound 1 µM): 20.6% | viability, T/C (second compound 0.316 µM, first compound 0.00316 µM): 99.1% | viability, T/C (second compound 0.316 µM, first compound 0.01 µM): 65.1% | viability, T/C (second compound 0.316 µM, first compound 0.0316 µM): 33.7% | viability, T/C (second compound 0.316 µM, first compound 0.1 µM): 17.9% | viability, T/C (second compound 0.316 µM, first compound 0.316 µM): 20.2% | viability, T/C (second compound 0.316 µM, first compound 1 µM): 20.1% | viability, T/C (second compound 1 µM, first compound 0.00316 µM): 99.2% | viability, T/C (second compound 1 µM, first compound 0.01 µM): 70.4% | viability, T/C (second compound 1 µM, first compound 0.0316 µM): 35.6% | viability, T/C (second compound 1 µM, first compound 0.1 µM): 16.4% | viability, T/C (second compound 1 µM, first compound 0.316 µM): 15.3% | viability, T/C (second compound 1 µM, first compound 1 µM): 20.8% | viability, T/C (second compound 3.16 µM, first compound 0.00316 µM): 103% | viability, T/C (second compound 3.16 µM, first compound 0.01 µM): 65.6% | viability, T/C (second compound 3.16 µM, first compound 0.0316 µM): 29.9% | viability, T/C (second compound 3.16 µM, first compound 0.1 µM): 19.8% | viability, T/C (second compound 3.16 µM, first compound 0.316 µM): 17.5% | viability, T/C (second compound 3.16 µM, first compound 1 µM): 18.8% | viability, T/C (second compound 10 µM, first compound 0.00316 µM): 102% | viability, T/C (second compound 10 µM, first compound 0.01 µM): 67.2% | viability, T/C (second compound 10 µM, first compound 0.0316 µM): 33.5% | viability, T/C (second compound 10 µM, first compound 0.1 µM): 15.2% | viability, T/C (second compound 10 µM, first compound 0.316 µM): 18.3% | viability, T/C (second compound 10 µM, first compound 1 µM): 19.2%

pIC50 (second compound 0.000949 µM): > 8.50 | pIC50 (second compound 0.003 µM): > 8.50 | pIC50 (second compound 0.00949 µM): > 8.50 | pIC50 (second compound 0.03 µM): > 8.50 | pIC50 (second compound 0.0949 µM): > 8.50 | pIC50 (second compound 0.3 µM): > 8.50
SMILES: O=C(c1ccc(F)c(F)c1Nc1ccc(I)cc1F)N1CC(O)([C@@H]2CCCCN2)C1 + CCn1c(-c2cc(N3CCN(C)CC3)cnc2C(C)OC)c2c3cc(ccc31)-c1csc(n1)CC(NC(=O)C1CC1C)C(=O)N1CCCC(N1)C(=O)OCC(C)(C)C2
viability, T/C (second compound 0.000949 µM, first compound 0.00316 µM): 39.5% | viability, T/C (second compound 0.000949 µM, first compound 0.01 µM): 11.1% | viability, T/C [1]: 2.22% | viability, T/C [2]: 1.79% | viability, T/C [3]: 0.22% | viability, T/C [4]: 0.2% | viability, T/C (second compound 0.003 µM, first compound 0.00316 µM): 13.7% | viability, T/C (second compound 0.003 µM, first compound 0.01 µM): 2.9% | viability, T/C [5]: 2.47% | viability, T/C [6]: 1.41% | viability, T/C [7]: 0.18% | viability, T/C [8]: 0.12% | viability, T/C (second compound 0.00949 µM, first compound 0.00316 µM): 3.2% | viability, T/C (second compound 0.00949 µM, first compound 0.01 µM): 2.49% | viability, T/C [9]: 1.79% | viability, T/C [10]: 0.56% | viability, T/C [11]: 0.06% | viability, T/C [12]: 0.13% | viability, T/C (second compound 0.03 µM, first compound 0.00316 µM): 2.9% | viability, T/C (second compound 0.03 µM, first compound 0.01 µM): 2.26% | viability, T/C [13]: 1.17% | viability, T/C [14]: 0.14% | viability, T/C [15]: 0.07% | viability, T/C [16]: 0.11% | viability, T/C (second compound 0.0949 µM, first compound 0.00316 µM): 1.79% | viability, T/C (second compound 0.0949 µM, first compound 0.01 µM): 1.48% | viability, T/C [17]: 0.57% | viability, T/C [18]: 0.07% | viability, T/C [19]: 0.1% | viability, T/C [20]: 0.13% | viability, T/C (second compound 0.3 µM, first compound 0.00316 µM): 1.39% | viability, T/C (second compound 0.3 µM, first compound 0.01 µM): 1.61% | viability, T/C [21]: 0.46% | viability, T/C [22]: 0.12% | viability, T/C [23]: 0.17% | viability, T/C [24]: 0.17%

pIC50 (second compound 0.000949 µM): 5.93 | pIC50 (second compound 0.003 µM): > 7.50 | pIC50 (second compound 0.00949 µM): > 7.50 | pIC50 (second compound 0.03 µM): > 7.50 | pIC50 (second compound 0.0949 µM): > 7.50 | pIC50 (second compound 0.3 µM): > 7.50
SMILES: CC(C)NCC(C(=O)N1CCN(c2ncnc3c2C(C)CC3O)CC1)c1ccc(Cl)cc1 (stereo not drawn) + CCn1c(-c2cc(N3CCN(C)CC3)cnc2C(C)OC)c2c3cc(ccc31)-c1csc(n1)CC(NC(=O)C1CC1C)C(=O)N1CCCC(N1)C(=O)OCC(C)(C)C2
viability, T/C [1]: 80.5% | viability, T/C [2]: 75.4% | viability, T/C [3]: 61.7% | viability, T/C [4]: 53.7% | viability, T/C (second compound 0.000949 µM, first compound 3.16 µM): 37.1% | viability, T/C (second compound 0.000949 µM, first compound 10 µM): 14.6% | viability, T/C [5]: 34.5% | viability, T/C [6]: 32.8% | viability, T/C [7]: 26.5% | viability, T/C [8]: 19.6% | viability, T/C (second compound 0.003 µM, first compound 3.16 µM): 10% | viability, T/C (second compound 0.003 µM, first compound 10 µM): 5.05% | viability, T/C [9]: 4.77% | viability, T/C [10]: 3.31% | viability, T/C [11]: 3.85% | viability, T/C [12]: 2.39% | viability, T/C (second compound 0.00949 µM, first compound 3.16 µM): 1.83% | viability, T/C (second compound 0.00949 µM, first compound 10 µM): 1.29% | viability, T/C [13]: 3.08% | viability, T/C [14]: 2.84% | viability, T/C [15]: 2.3% | viability, T/C [16]: 1.95% | viability, T/C (second compound 0.03 µM, first compound 3.16 µM): 0.99% | viability, T/C (second compound 0.03 µM, first compound 10 µM): 0.77% | viability, T/C [17]: 2.64% | viability, T/C [18]: 2.19% | viability, T/C [19]: 2.43% | viability, T/C [20]: 1.31% | viability, T/C (second compound 0.0949 µM, first compound 3.16 µM): 1.13% | viability, T/C (second compound 0.0949 µM, first compound 10 µM): 0.37% | viability, T/C [21]: 1.88% | viability, T/C [22]: 2.14% | viability, T/C [23]: 2.14% | viability, T/C [24]: 0.97% | viability, T/C (second compound 0.3 µM, first compound 3.16 µM): 0.62% | viability, T/C (second compound 0.3 µM, first compound 10 µM): 0.36%

IC50 (curve of compound): 1.74 µM [middle of 4 runs]
SMILES: CC(Nc1ccc2c(c1)OCCn1cc(N3C(=O)OCC3C(F)F)nc1-2)C(N)=O (stereo not drawn)
viability, T/C (compound 0.0316 µM): 104% [middle of 4 runs] | viability, T/C (compound 0.1 µM): 71.2% [middle of 4 runs] | viability, T/C (compound 0.316 µM): 63.9% [middle of 4 runs] | viability, T/C (compound 1 µM): 58.4% [middle of 4 runs] | viability, T/C (compound 3.16 µM): 46.1% (2×) and 45.7% and 46% | viability, T/C (compound 10 µM): 35.1% [middle of 4 runs]
